The test system of test [1] is carbapenem sensitive Escherichia coli. Kind of test: MIC by broth micro-dilution (CLSI), carbapenem sensitive E. coli. It counts as cell-based. On the technique in general: Dilution methods test growth across graded concentrations, often in twofold steps.
Test [2] has as its system carbapenem sensitive Pseudomonas aeruginosa. Kind of test: MIC by broth micro-dilution (CLSI), carbapenem sensitive P. aeruginosa. It counts as cell-based.
Test [3] relates to methicillin-sensitive Staphylococcus aureus. Kind of test: MIC by broth micro-dilution (CLSI), methicillin-sensitive S. aureus. The test is classed as cell-based. The conditions noted are these: MSSA S. aureus ATCC29213.
Test [4] deals with carbapenemase producing K. pneumoniae. In words: MIC by broth micro-dilution (CLSI), carbapenemase producing K. pneumoniae. The test is classed as cell-based, Klebsiella pneumoniae.
The mark [5] stands for this setting: Escherichia coli, ATCC25922, ESBL −ve E. coli ATCC25922, read-out: MIC.
The mark [6] stands for this setting: Pseudomonas aeruginosa, ATCC27853, Meropenem susceptible P. aeruginosa ATCC27853, read-out: MIC.
[7] abbreviates: Staphylococcus aureus, ATCC 29213 / MSSA, read-out: MIC.
[8] abbreviates: Klebsiella pneumoniae, ATCCBAA1705, KPC-2 K. pneumoniae ATCC BAA-1705, read-out: MIC.
[9] abbreviates: Meropenem susceptible P. aeruginosa ATCC27853.
The mark [10] stands for this setting: KPC-2 K. pneumoniae ATCC BAA-1705.

The structures appear in SMILES notation. Values after ≈ are worked out from the molar mass of the structure shown. Like-named read-outs stand apart in the source and are kept apart here.

Broadly, the MIC is the lowest concentration found to suppress growth. As for `CNCC(=O)N[C@H](C)[C@H]1C(=O)N2C(C(=O)O)=C(S[C@@H]3CN[C@H](CNC(=O)[C@H]4CC[C@@H](N)C4)C3)[C@H](C)[C@H]12` [Example 255], the MIC in test [1] (setting [5]) amounted to 4 µg/mL (≈ 7.65 µM); in test [2] (setting [6]), 32 µg/mL (≈ 61.2 µM); in test [3] (setting [7]) it was 8 µg/mL (≈ 15.3 µM); in test [4] (setting [8]), 8 µg/mL (≈ 15.3 µM).
For the molecule `C[C@@H](NC(=O)Cn1cnnn1)[C@H]1C(=O)N2C(C(=O)O)=C(S[C@@H]3CN[C@H](C(=O)N4CCC5CNCC5(CO)C4)C3)[C@H](C)[C@H]12` (single isomer, unassigned) [Example 537], the MIC in test [1] (ESBL −ve E. coli ATCC25922) was determined as 0.25 µg/mL (≈ 0.414 µM); in test [2] (setting [9]), 2 µg/mL (≈ 3.31 µM); in test [3], 4 µg/mL (≈ 6.63 µM); in test [4] (setting [10]), 2 µg/mL (≈ 3.31 µM).
With `C[C@@H](NC(=O)Cn1cnnn1)[C@H]1C(=O)N2C(C(=O)O)=C(S[C@@H]3CN[C@H](C(=O)N4C[C@@H]5C[C@@H](N)C[C@]5(CO)C4)C3)[C@H](C)[C@H]12` [Example 529, (4R,5S,6R)-6-((R)-1-(2-(1H-tetrazol-1-yl)acetamido)ethyl)-3-((3S,5S)-5-((3aR,5R,6aR)-5-amino-3a-(hydroxymethyl)octahydrocyclopenta[c]pyrrole-2-carbonyl)pyrrolidin-3-ylthio)-4-methyl-7-oxo-1-azabicyclo[3.2.0]hept-2-ene-2-carboxylic acid], the MIC in test [1] (setting [5]) turned out to be 0.25 µg/mL (≈ 0.414 µM); in test [2] (setting [6]), 1 µg/mL (≈ 1.66 µM); in test [3] (setting [7]), 4 µg/mL (≈ 6.63 µM); in test [4] (setting [8]), 2 µg/mL (≈ 3.31 µM).
For `C[C@@H](NC(=O)Cn1nnc(N)n1)[C@H]1C(=O)N2C(C(=O)O)=C(S[C@@H]3CN[C@H](C(=O)N(C)C)C3)[C@H](C)[C@H]12` [Example 315, (4R,5S,6R)-6-((R) - 1-(2-(5-amino-2H-tetrazol-2-yl)acetamido)ethyl)-3-((3S,5S)-5-(dimethylcarbamoyl)pyrrolidin-3-ylthio)-4-methyl-7-oxo-1-azabicyclo[3.2.0]hept-2-ene-2-carboxylic acid], in that order: 0.125 µg/mL (≈ 0.246 µM), 64 µg/mL (≈ 126 µM), 4 µg/mL (≈ 7.88 µM) and 2 µg/mL (≈ 3.94 µM).
For `C[C@@H](NC(=O)Cn1cnnn1)[C@H]1C(=O)N2C(C(=O)O)=C(S[C@H]3CCN(C(=O)CN)C3)[C@H](C)[C@H]12` [Example 449, (4R,5S,6R)-6-((R)-1-(2-(1H-tetrazol-1-yl)acetamido)ethyl)-3-((S)-1-(2-aminoacetyl)pyrrolidin-3-ylthio)-4-methyl-7-oxo-1-azabicyclo[3.2.0]hept-2-ene-2-carboxylic acid], in that order: 0.5 µg/mL (≈ 1.04 µM), 64 µg/mL (≈ 134 µM), 4 µg/mL (≈ 8.36 µM) and 4 µg/mL (≈ 8.36 µM).
For the molecule `C[C@@H](NC(=O)Cn1cnnn1)[C@H]1C(=O)N2C(C(=O)O)=C(S[C@@H]3CN[C@H](C(=O)N4CCCC45CCNCC5)C3)[C@H](C)[C@H]12` [Example 477, (4R,5S,6R)-3-((3S,5S)-5-(1,8-diazaspiro[4.5]decane-1-carbonyl)pyrrolidin-3-ylthio)-6-((R)-1-(2-(1H-tetrazol-1-yl)acetamido)ethyl)-4-methyl-7-oxo-1-azabicyclo[3.2.0]hept-2-ene-2-carboxylic acid], the MIC in test [1] (setting [5]) came to 0.5 µg/mL (≈ 0.851 µM); in test [2] (setting [6]), 64 µg/mL (≈ 109 µM); in test [3] (setting [7]), 2 µg/mL (≈ 3.4 µM); in test [4] (setting [8]) it was 2 µg/mL (≈ 3.4 µM).
For `C[C@@H](NC(=O)Cn1cnnn1)[C@H]1C(=O)N2C(C(=O)O)=C(S[C@@H]3CN[C@H](C(=O)N4CCC5CNCCC54)C3)[C@H](C)[C@H]12` (stereo partly drawn) [Example 439, (4R,5S,6R)-6-((R)-1-(2-(1H-tetrazol-1-yl)acetamido)ethyl)-4-methyl-3-((3S,5S)-5-(octahydro-1H-pyrrolo[3,2-c]pyridine-1-carbonyl)pyrrolidin-3-ylthio)-7-oxo-1-azabicyclo[3.2.0]hept-2-ene-2-carboxylic acid], the MIC was determined as 0.25 µg/mL (≈ 0.436 µM) in test [1] (ESBL −ve E. coli ATCC25922), 1 µg/mL (≈ 1.74 µM) in test [2] (setting [9]), 2 µg/mL (≈ 3.49 µM) in test [3] and 1 µg/mL (≈ 1.74 µM) in test [4] (setting [10]).
Turning to `C[C@@H](NC(=O)Cn1cnnn1)[C@H]1C(=O)N2C(C(=O)O)=C(S[C@@H]3CN[C@H](C(=O)N4CCC5CN(C(=N)N)CCC54)C3)[C@H](C)[C@H]12` (single isomer, unassigned) [Example 560], the minimal inhibitory concentration (MIC) in test [1] (ESBL −ve E. coli ATCC25922) turned out to be 0.125 µg/mL (≈ 0.203 µM); in test [2] (setting [9]), 1 µg/mL (≈ 1.62 µM); in test [3], 1 µg/mL (≈ 1.62 µM); in test [4] (setting [10]), 0.5 µg/mL (≈ 0.812 µM).
On to `C[C@H]([C@H]1C(=O)N2C(C(=O)O)=C(S[C@@H]3CN[C@H](C(=O)N(C)C)C3)[C@H](C)[C@H]12)n1nnc(N)n1` [Example 326, (4R,5S,6S)-6-((R) - 1-(5-amino-2H-tetrazol-2-yl)ethyl)-3-((3S,5S)-5-(dimethylcarbamoyl)pyrrolidin-3-ylthio)-4-methyl-7-oxo-1-azabicyclo[3.2.0]hept-2-ene-2-carboxylic acid], for which the MIC in test [1] (setting [5]) came to 1 µg/mL (≈ 2.22 µM); in test [2] (setting [6]) it was 64 µg/mL (≈ 142 µM); in test [3] (setting [7]), 2 µg/mL (≈ 4.44 µM); in test [4] (setting [8]), 16 µg/mL (≈ 35.5 µM).
`C[C@@H](NC(=O)Cn1cnnn1)[C@H]1C(=O)N2C(C(=O)O)=C(S[C@@H]3CN[C@H](C(=O)N4CC[C@@H](CN)C4)C3)[C@H](C)[C@H]12` [Example 472, (4R,5S,6R)-6-((R)-1-(2-(1H-tetrazol-1-yl)acetamido)ethyl)-3-((3S,5S)-5-((S)-3-(aminomethyl)pyrrolidine-1-carbonyl)pyrrolidin-3-ylthio)-4-methyl-7-oxo-1-azabicyclo[3.2.0]hept-2-ene-2-carboxylic acid]: the MIC in test [1] (setting [5]) stood at 0.5 µg/mL (≈ 0.913 µM); in test [2] (setting [6]), 2 µg/mL (≈ 3.65 µM); in test [3] (setting [7]) it was 4 µg/mL (≈ 7.3 µM); in test [4] (setting [8]), 2 µg/mL (≈ 3.65 µM).
In the case of `C[C@@H](NC(=O)Cn1cnnn1)[C@H]1C(=O)N2C(C(=O)O)=C(S[C@@H]3CN[C@H](C(=O)N4CCC5CNCCC54)C3)C[C@H]12` (stereo partly drawn) [Example 601, (5R,6R)-6-((R)-1-(2-(1H-tetrazol-1-yl)acetamido)ethyl)-3-((3S,5S)-5-(octahydro-1H-pyrrolo[3,2-c]pyridine-1-carbonyl)pyrrolidin-3-ylthio)-7-oxo-1-azabicyclo[3.2.0]hept-2-ene-2-carboxylic acid], the MIC amounted to 2 µg/mL (≈ 3.57 µM) in test [1] (setting [5]), 128 µg/mL (≈ 229 µM) in test [2] (setting [6]), 2 µg/mL (≈ 3.57 µM) in test [3] (setting [7]) and 64 µg/mL (≈ 114 µM) in test [4] (setting [8]).
`C[C@@H](NC(=O)Cn1cnnn1)[C@H]1C(=O)N2C(C(=O)O)=C(S[C@@H]3CN[C@H](C(=O)N4CCC[C@H]4CN)C3)[C@H](C)[C@H]12` [Example 464, (4R,5S,6R)-6-((R)-1-(2-(1-tetrazol-1-yl)acetamido)ethyl)-3-((3S,5S)-5-((S)-2-(aminomethyl)pyrrolidine-1-carbooyl)pyrrolidin-3-ylthio)-4-methyl-7-oxo-1-azabicyclo[3.2.0]hept-2-ene-2-carboxylic acid]: the MIC in test [1] (setting [5]) stood at 1 µg/mL (≈ 1.83 µM); in test [2] (setting [6]) it was 16 µg/mL (≈ 29.2 µM); in test [3] (setting [7]) it was 4 µg/mL (≈ 7.3 µM); in test [4] (setting [8]), 4 µg/mL (≈ 7.3 µM).
As for `C[C@@H](NC(=O)C(C)(C)n1cnnn1)[C@H]1C(=O)N2C(C(=O)O)=C(S[C@@H]3CN[C@H](C(=O)N(C)C)C3)[C@H](C)[C@H]12` [Example 318, (4R,5S,6R)-3-((3S,5S)-5-(dimethylcarbamoyl)pyrrolidin-3-ylthio)-4-methyl-6-((R) - 1-(2-methyl-2-(1H-tetrazol-1-yl)propanaraido)ethyl)-7-oxo-1-azabicyclop[3.2.0]hept-2-ene-2-carboxylic acid], the MIC in test [1] (setting [5]) is 2 µg/mL (≈ 3.84 µM); in test [2] (setting [6]), above 128 µg/mL; in test [3] (setting [7]) it was 16 µg/mL (≈ 30.7 µM); in test [4] (setting [8]) it was 128 µg/mL (≈ 246 µM).

For the origin of these results see patent US11180504B2 (ORCHID PHARMA LTD., priority 2016, dated 2021).
